Experiment in all cases: NCI-60 cell line screen, 48 h
Assay [1] concerns TK-10 renal.
The test system of assay [2] is SW-620 colon.
The subject of assay [3] is SK-MEL-2 melanoma.
The test system of assay [4] is MDA-N.
Assay [5] deals with K-562 leukemia.
Assay [6] relates to SK-MEL-28 melanoma.
Assay [7] relates to HCT-116 colon.
Assay [8] relates to NCI-H23 lung.
The test system of assay [9] is SF-539 CNS.
The subject of assay [10] is UACC-257 melanoma.

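Assay format: 96-well plates, 48-hour exposure. TGI denotes the concentration required for complete inhibition of growth.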 Some results are limits rather than exact numbers.

Regarding `C=C1CC2C[C@H](OS(=O)(=O)c3ccc(C)cc3)C(C1)N2C` (stereo not given in full), the TGI in assay [1], in [2], in assay [3], in assay [4], in [5] and in assay [6] was over 100 µM in each case. Moreover, the TGI in [7], in [8], in [9] and in assay [10] was over 100 µM in each case.

Consider `COc1ccc2c(-c3csc(-c4c[nH]c5ccccc45)n3)c[nH]c2c1`, for which the TGI in assay [1] is 23.5 µM; in assay [2], over 100 µM; in assay [3], over 86.2 µM; in [4], over 100 µM; in assay [5], over 22.1 µM; in assay [6], over 81.6 µM. Further, the TGI was 19 µM in [7], over 66.5 µM in assay [8], 65.5 µM in assay [9] and over 90.6 µM in [10].

`S=C1NNC(=S)NN1`: the TGI in [1] is over 1 µM; in assay [2], over 1 µM; in assay [3], over 1 µM; in assay [4], over 1 µM; in [5], 0.478 µM; in assay [6], over 1 µM. Also, the TGI in assay [7], in assay [8], in assay [9] and in assay [10] was over 1 µM throughout.

In the case of `CC(=O)N1C(=O)/C(=C\C(=O)c2ccc(Cl)cc2)c2ccccc21`, the TGI was 30.5 µM in [1]; 61.1 µM in assay [2]; 38.9 µM in [3]; 30.9 µM in [4]; over 100 µM in assay [5]; 35.8 µM in assay [6]. In addition, the TGI in assay [7] came out at 32.3 µM; in assay [8] it was 31.7 µM; in assay [9], 37.2 µM; in [10], 30.7 µM.

For the molecule `O=C1CSC(c2cc3cc(Br)ccc3nc2Cl)N1c1ccc(F)c(Cl)c1` (stereo not given), the TGI in [1], in assay [2], in assay [3], in assay [4], in assay [5] and in assay [6] was over 50 µM each time. Moreover, the TGI in assay [7], in assay [8], in assay [9] and in [10] was over 50 µM throughout.

Take `O=C(c1cccs1)N(C(=O)N1CCCCC1)c1ccccc1`: the TGI in assay [1], in [2], in [3], in assay [4], in [5] and in assay [6] was over 100 µM each time. The TGI in assay [7], in [8], in [9] and in assay [10] was over 100 µM each time.

With `NC(=O)c1ccc(S(=O)(=NS(=O)(=O)c2ccccc2)c2ccc(C(N)=O)cc2)cc1`, the TGI in assay [1], in [2], in assay [3], in assay [4], in [5] and in assay [6] was over 100 µM throughout. The TGI in assay [7], in [8], in assay [9] and in assay [10] was over 100 µM in each case.

For `C/C(=N\Nc1nc2ccccc2n1C)c1ccncn1`, the TGI in assay [1] is over 100 µM; in assay [2] it was over 47.6 µM; in assay [3], over 100 µM; in [4], over 100 µM; in [5], over 100 µM; in assay [6], 0.168 µM. Moreover, the TGI in assay [7] was over 39.8 µM; in assay [8], over 100 µM; in assay [9], 21.8 µM; in assay [10], over 100 µM.

`CC(C)(CO)Nc1c(O)c2c(c(O)c1Cl)C(=O)C=CC2=O`: the TGI stood at 3.36 µM in assay [1]; 1.37 µM in [2]; 4.8 µM in assay [3]; 2.26 µM in [4]; 1.78 µM in [5]; 3.32 µM in [6]. The TGI in assay [7] turned out to be 3.07 µM; in assay [8], 3.37 µM; in assay [9] it was 2.7 µM; in [10] it was 3.11 µM.

On to `c1ccc2c(c1)[C@@H]1O[C@@H]1[C@@]13O[C@@]21[C@H]1O[C@H]1c1ccccc13`, for which the TGI was 62.2 µM in [1]; 39.5 µM in [2]; 37.5 µM in [3]; 32.6 µM in assay [4]; 41.7 µM in [5]; 41.2 µM in [6]. Moreover, the TGI in [7] turned out to be 25.2 µM; in assay [8], 40.1 µM; in assay [9], 34.9 µM; in [10], 37.2 µM.

Take `Cc1cc(S(=O)(=O)Nc2n[nH]c(N)n2)c(S)cc1Cl`: the TGI in [1], in assay [2], in assay [3], in assay [4], in assay [5] and in [6] was over 10 µM in each case. Besides, the TGI in assay [7], in assay [8], in [9] and in [10] was over 10 µM in each case.

Turning to `CN1CCN(C2CC(=O)c3c(Cl)sc(Cl)c32)CC1` (stereo not given), the TGI was over 61 µM in assay [1]; 22.2 µM in assay [2]; over 59.9 µM in assay [3]; 35 µM in assay [4]; over 100 µM in assay [5]; 20.2 µM in [6]. Also, the TGI in assay [7] is 19.2 µM; in assay [8], 30.3 µM; in assay [9], 49.6 µM; in [10], over 61.5 µM.

Consider `CC(=O)c1nc(C#N)c(N)o1`, for which the TGI in [1], in [2], in [3], in [4], in [5] and in assay [6] was over 100 µM in each case. Also, the TGI in assay [7], in assay [8], in assay [9] and in assay [10] was over 100 µM in each case.

With `N#CC(NNC(=O)c1c(Cl)c(Cl)c(Cl)c(Cl)c1-c1nc2ccc(C(=O)c3ccccc3)cc2[nH]1)c1cccc(Oc2ccccc2)c1` (stereo not given), the TGI in assay [1] was 95.1 µM; in assay [2] it was over 100 µM; in [3], 47.2 µM; in assay [4], 49.6 µM; in [5] it was over 100 µM; in assay [6], 74.1 µM. The TGI in assay [7] was over 100 µM; in assay [8], 90.9 µM; in [9], 43.4 µM; in assay [10], over 100 µM.

With `Nc1nc(Cl)cc(NCC2CC(O)(CO)C2)n1` (stereo not given), the TGI in [1], in assay [2], in assay [3], in assay [4], in [5] and in assay [6] was over 100 µM throughout. In addition, the TGI in assay [7], in assay [8], in [9] and in [10] was over 100 µM in each case.

For `CC(=O)OCC12C(OC(C)=O)C[C@@H](C)C3(CC(c4ccoc4)OC3=O)C1CCC(OC(C)=O)C21CO1` (stereo not given in full), the TGI in [1], in assay [2], in [3], in [4], in assay [5] and in assay [6] was over 100 µM throughout. In addition, the TGI in [7], in assay [8], in assay [9] and in assay [10] was over 100 µM throughout.

On to `CC(=O)c1c2c(cc3c1CCC3)CCC2`, for which the TGI in [1], in assay [2], in assay [3], in assay [4], in [5] and in assay [6] was over 100 µM each time. In addition, the TGI in assay [7], in assay [8], in [9] and in assay [10] was over 100 µM throughout.

As for `CC1CC2OC(=N)C1(C#N)C2(C#N)C#N` (stereo not given), the TGI in [1] is 71.6 µM; in assay [2], over 100 µM; in assay [3], 43.5 µM; in assay [4], 33 µM; in assay [5], 56.2 µM; in [6], over 100 µM. Also, the TGI in [7] is 43.3 µM; in assay [8], 63.7 µM; in [9] it was 56.7 µM; in assay [10] it was 41 µM.

Regarding `C[C@@H]1CC(=O)[C@@]2(C)[C@](O)(CCC3O[C@]32C)[C@@]12CC(c1ccoc1)OC2=O` (stereo not given in full), the TGI in assay [1], in [2], in assay [3], in assay [4], in assay [5] and in [6] was over 100 µM each time. Also, the TGI in [7], in assay [8], in assay [9] and in assay [10] was over 100 µM in each case.

With `CN1C(=O)[C@](C)(Cc2ccc(F)cc2)N(C(=O)OC(C)(C)C)[C@@H]1C(C)(C)C`, the TGI in assay [1] was over 100 µM; in assay [2], over 100 µM; in [3], over 100 µM; in [4], over 100 µM; in [5], 65.7 µM; in assay [6], over 100 µM. For the same molecule, the TGI in assay [7] was over 100 µM; in assay [8], over 100 µM; in [9] it was over 100 µM; in assay [10], 92.3 µM.

Take `CC(C)(C)C1=CC(O)(c2c3ccccc3c(C3(O)C=C(C(C)(C)C)C(=O)C(C(C)(C)C)=C3)c3ccccc23)C=C(C(C)(C)C)C1=O`: the TGI in assay [1], in assay [2], in [3], in assay [4], in assay [5] and in assay [6] was over 100 µM each time. The TGI in [7], in assay [8], in assay [9] and in assay [10] was over 100 µM in each case.

Consider `COc1ccc(C(OCC2OC(n3ccc(Oc4c(F)c(F)c(F)c(F)c4F)nc3=O)CC2OP(OCCC#N)N(C(C)C)C(C)C)(c2ccccc2)c2ccc(OC)cc2)cc1` (stereo not given), for which the TGI in [1], in assay [2], in [3], in assay [4], in [5] and in assay [6] was over 100 µM in each case. The TGI in assay [7], in [8], in [9] and in assay [10] was over 100 µM in each case.

For the molecule `O=C1CCc2c(sc3ncnc(Nc4cccc(Br)c4)c23)C1`, the TGI in assay [1] was 14.5 µM; in [2], 11.6 µM; in assay [3] it was 23.8 µM; in assay [4] it was 7.69 µM; in assay [5], over 22.7 µM; in assay [6], 52.6 µM. In addition, the TGI in assay [7] was 11.7 µM; in [8], 8.24 µM; in assay [9], 13.2 µM; in [10] it was 11.6 µM.

`CCOC(=O)CCC1(C(=O)O[C@@H]2C[C@H](C)CC[C@H]2C(C)C)CCCCC1=O` (stereo not given in full): the TGI in [1], in assay [2], in [3], in [4], in assay [5] and in assay [6] was over 100 µM each time. Besides, the TGI in assay [7] is over 100 µM; in assay [8] it was over 100 µM; in assay [9], over 100 µM; in assay [10] it was 60 µM.

As for `CCOC(=O)C1=C(C)N(c2ccc(Cl)cc2)C2(O)C=CC(=O)C3C(=O)N(c4ccccc4)C(=O)C132` (stereo not given), the TGI was found to be 3.49 µM in assay [1]; 3.68 µM in assay [2]; 3.53 µM in assay [3]; 8.92 µM in [4]; 9.03 µM in assay [5]; 3.06 µM in [6]. Besides, the TGI in assay [7] is 3.14 µM; in [8], 4.75 µM; in [9], 9.4 µM; in [10], 6.76 µM.

On to `Cc1nc2cccc(F)c2c(=O)n1-c1nnc(C2CC2)s1`, for which the TGI in assay [1], in assay [2], in assay [3], in assay [4], in [5] and in assay [6] was over 10 µM in each case. Also, the TGI in [7], in assay [8], in assay [9] and in [10] was over 10 µM each time.
